{
  "source": "ChEMBL document CHEMBL4308841",
  "about": "“Synthesis, in vitro antiproliferative activity, and kinase inhibitory effects of pyrazole-containing diarylureas and diarylamides” (Eur J Med Chem, 2018)",
  "data": [
    {"test_system": "SK-MEL-5", "assay": "Growth inhibition of human SK-MEL-5 cells assessed as cell growth at 10 uM incubated for 48 hrs by sulforhodamine B assay relative to control", "assay_type": "functional", "conditions": "SK-MEL-5, 48 h, read-out: Activity", "units": {"growth at 10 µM": "%"}, "values": [
      {"smiles": "COc1cc(Cl)cc(-c2nn(-c3cccc(NC(=O)c4cc(C(F)(F)F)cc(C(F)(F)F)c4)c3)cc2-c2ccncc2)c1", "growth at 10 µM": 67.3}
    ]},
    {"test_system": "SF-539", "assay": "Growth inhibition of human SF539 cells assessed as cell growth at 10 uM incubated for 48 hrs by sulforhodamine B assay relative to control", "assay_type": "functional", "conditions": "SF-539, 48 h, read-out: Activity", "units": {"growth at 10 µM": "%"}, "values": [
      {"smiles": "COc1cc(Cl)cc(-c2nn(-c3cccc(NC(=O)c4cc(C(F)(F)F)cc(C(F)(F)F)c4)c3)cc2-c2ccncc2)c1", "growth at 10 µM": 80}
    ]},
    {"test_system": "MCF7", "assay": "Growth inhibition of human MCF7 cells assessed as cell growth at 10 uM incubated for 48 hrs by sulforhodamine B assay relative to control", "assay_type": "functional", "conditions": "MCF7, 48 h, read-out: Activity", "units": {"growth at 10 µM": "%"}, "values": [
      {"smiles": "COc1cc(Cl)cc(-c2nn(-c3cccc(NC(=O)c4cc(C(F)(F)F)cc(C(F)(F)F)c4)c3)cc2-c2ccncc2)c1", "growth at 10 µM": 57.8}
    ]},
    {"test_system": "SW-620", "assay": "Growth inhibition of human SW620 cells assessed as cell growth at 10 uM incubated for 48 hrs by sulforhodamine B assay relative to control", "assay_type": "functional", "conditions": "SW-620, 48 h, read-out: Activity", "units": {"growth at 10 µM": "%"}, "values": [
      {"smiles": "COc1cc(Cl)cc(-c2nn(-c3cccc(NC(=O)c4cc(C(F)(F)F)cc(C(F)(F)F)c4)c3)cc2-c2ccncc2)c1", "growth at 10 µM": 86.2}
    ]},
    {"test_system": "OVCAR-8", "assay": "Growth inhibition of human OVCAR8 cells assessed as cell growth at 10 uM incubated for 48 hrs by sulforhodamine B assay relative to control", "assay_type": "functional", "conditions": "OVCAR-8, 48 h, read-out: Activity", "units": {"growth at 10 µM": "%"}, "values": [
      {"smiles": "COc1cc(Cl)cc(-c2nn(-c3cccc(NC(=O)c4cc(C(F)(F)F)cc(C(F)(F)F)c4)c3)cc2-c2ccncc2)c1", "growth at 10 µM": 55.4}
    ]},
    {"test_system": "A549", "assay": "Growth inhibition of human A549/ATCC cells assessed as cell growth at 10 uM incubated for 48 hrs by sulforhodamine B assay relative to control", "assay_type": "functional", "conditions": "A549, 48 h, read-out: Activity", "units": {"growth at 10 µM": "%"}, "values": [
      {"smiles": "COc1cc(Cl)cc(-c2nn(-c3cccc(NC(=O)c4cc(C(F)(F)F)cc(C(F)(F)F)c4)c3)cc2-c2ccncc2)c1", "growth at 10 µM": 43.5}
    ]},
    {"test_system": "T47D", "assay": "Growth inhibition of human T47D cells assessed as cell growth at 10 uM incubated for 48 hrs by sulforhodamine B assay relative to control", "assay_type": "functional", "conditions": "read-out: Activity", "units": {"growth at 10 µM": "%"}, "values": [
      {"smiles": "COc1cc(Cl)cc(-c2nn(-c3cccc(NC(=O)c4cc(C(F)(F)F)cc(C(F)(F)F)c4)c3)cc2-c2ccncc2)c1", "growth at 10 µM": 53.4}
    ]},
    {"test_system": "SNB-75", "assay": "Growth inhibition of human SNB75 cells assessed as cell growth at 10 uM incubated for 48 hrs by sulforhodamine B assay relative to control", "assay_type": "functional", "conditions": "SNB-75, 48 h, read-out: Activity", "units": {"growth at 10 µM": "%"}, "values": [
      {"smiles": "COc1cc(Cl)cc(-c2nn(-c3cccc(NC(=O)c4cc(C(F)(F)F)cc(C(F)(F)F)c4)c3)cc2-c2ccncc2)c1", "growth at 10 µM": 60.8}
    ]},
    {"test_system": "K562", "assay": "Growth inhibition of human K562 cells assessed as cell growth at 10 uM incubated for 48 hrs by sulforhodamine B assay relative to control", "assay_type": "functional", "conditions": "K562, 48 h, read-out: Activity", "units": {"growth at 10 µM": "%"}, "values": [
      {"smiles": "COc1cc(Cl)cc(-c2nn(-c3cccc(NC(=O)c4cc(C(F)(F)F)cc(C(F)(F)F)c4)c3)cc2-c2ccncc2)c1", "growth at 10 µM": 38}
    ]},
    {"test_system": "HL-60(TB)", "assay": "Growth inhibition of human HL-60(TB) cells assessed as cell growth at 10 uM incubated for 48 hrs by sulforhodamine B assay relative to control", "assay_type": "functional", "conditions": "HL-60, 48 h, read-out: Activity", "units": {"growth at 10 µM": "%"}, "values": [
      {"smiles": "COc1cc(Cl)cc(-c2nn(-c3cccc(NC(=O)c4cc(C(F)(F)F)cc(C(F)(F)F)c4)c3)cc2-c2ccncc2)c1", "growth at 10 µM": 84.3}
    ]},
    {"test_system": "NCI-H322M", "assay": "Growth inhibition of human NCI-H322M cells assessed as cell growth at 10 uM incubated for 48 hrs by sulforhodamine B assay relative to control", "assay_type": "functional", "conditions": "read-out: Activity", "units": {"growth at 10 µM": "%"}, "values": [
      {"smiles": "COc1cc(Cl)cc(-c2nn(-c3cccc(NC(=O)c4cc(C(F)(F)F)cc(C(F)(F)F)c4)c3)cc2-c2ccncc2)c1", "growth at 10 µM": 80.3}
    ]},
    {"test_system": "SK-MEL-28", "assay": "Growth inhibition of human SK-MEL-28 cells assessed as cell growth at 10 uM incubated for 48 hrs by sulforhodamine B assay relative to control", "assay_type": "functional", "conditions": "SK-MEL-28, 48 h, read-out: Activity", "units": {"growth at 10 µM": "%"}, "values": [
      {"smiles": "COc1cc(Cl)cc(-c2nn(-c3cccc(NC(=O)c4cc(C(F)(F)F)cc(C(F)(F)F)c4)c3)cc2-c2ccncc2)c1", "growth at 10 µM": 78.8}
    ]},
    {"test_system": "PC-3", "assay": "Growth inhibition of human PC3 cells assessed as cell growth at 10 uM incubated for 48 hrs by sulforhodamine B assay relative to control", "assay_type": "functional", "conditions": "PC-3, 48 h, read-out: Activity", "units": {"growth at 10 µM": "%"}, "values": [
      {"smiles": "COc1cc(Cl)cc(-c2nn(-c3cccc(NC(=O)c4cc(C(F)(F)F)cc(C(F)(F)F)c4)c3)cc2-c2ccncc2)c1", "growth at 10 µM": 35.6}
    ]},
    {"test_system": "HCC 2998", "assay": "Growth inhibition of human HCC2998 cells assessed as cell growth at 10 uM incubated for 48 hrs by sulforhodamine B assay relative to control", "assay_type": "functional", "conditions": "HCC 2998, 48 h, read-out: Activity", "units": {"growth at 10 µM": "%"}, "values": [
      {"smiles": "COc1cc(Cl)cc(-c2nn(-c3cccc(NC(=O)c4cc(C(F)(F)F)cc(C(F)(F)F)c4)c3)cc2-c2ccncc2)c1", "growth at 10 µM": 78.3}
    ]},
    {"test_system": "RPMI-8226", "assay": "Growth inhibition of human RPMI8226 cells assessed as cell growth at 10 uM incubated for 48 hrs by sulforhodamine B assay relative to control", "assay_type": "functional", "conditions": "RPMI-8226, 48 h, read-out: Activity", "units": {"growth at 10 µM": "%"}, "values": [
      {"smiles": "COc1cc(Cl)cc(-c2nn(-c3cccc(NC(=O)c4cc(C(F)(F)F)cc(C(F)(F)F)c4)c3)cc2-c2ccncc2)c1", "growth at 10 µM": 43.6}
    ]},
    {"test_system": "SNB-19", "assay": "Growth inhibition of human SNB19 cells assessed as cell growth at 10 uM incubated for 48 hrs by sulforhodamine B assay relative to control", "assay_type": "functional", "conditions": "SNB-19, 48 h, read-out: Activity", "units": {"growth at 10 µM": "%"}, "values": [
      {"smiles": "COc1cc(Cl)cc(-c2nn(-c3cccc(NC(=O)c4cc(C(F)(F)F)cc(C(F)(F)F)c4)c3)cc2-c2ccncc2)c1", "growth at 10 µM": 86.4}
    ]},
    {"test_system": "SR", "assay": "Growth inhibition of human SR cells assessed as cell growth at 10 uM incubated for 48 hrs by sulforhodamine B assay relative to control", "assay_type": "functional", "conditions": "read-out: Activity", "units": {"growth at 10 µM": "%"}, "values": [
      {"smiles": "COc1cc(Cl)cc(-c2nn(-c3cccc(NC(=O)c4cc(C(F)(F)F)cc(C(F)(F)F)c4)c3)cc2-c2ccncc2)c1", "growth at 10 µM": 41}
    ]}
  ]
}
